Experimental data as given in ChEMBL document CHEMBL1156204, “Spectacular modification of Gambogic acid on microwave irradiation in methanol: isolation and structure identification of two products with potent anti-tumor activity” (Bioorg Med Chem Lett, 2010).
The source made the active and inactive calls. The calls are words filed in the database; no cut-off is given here.

Legend:
[1] = tested on: HepG2; assay: Cytotoxicity against human HepG2 cells after 48 hrs by MTT assay; format: functional, cell-based; conditions: HepG2, 48 h
[2] = Cytotoxicity against human BGC803 cells after 48 hrs by MTT assay; format: functional, cell-based; conditions: BGC803, 48 h
[3] = tested on: SGC-7901; assay: Cytotoxicity against human SGC7901 cells after 48 hrs by MTT assay; format: functional, cell-based; conditions: SGC-7901, 48 h
[4] = tested on: MCF7; assay: Cytotoxicity against human MCF7 cells after 48 hrs by MTT assay; format: functional, cell-based; conditions: MCF7, 48 h
[5] = tested on: HepG2; assay: Effect on human HepG2 cell morphology assessed as cell elongation at 1.25 to 5 uM after 24 hrs by inverted-light microscopy; format: functional, cell-based
[6] = tested on: HepG2; assay: Effect on human HepG2 cell morphology assessed as induction of membrane blebbing at 1.25 to 5 uM after 24 hrs by inverted-light microscopy; format: functional, cell-based
[7] = tested on: HepG2; assay: Effect on human HepG2 cell morphology assessed as induction of cell shrinkage at 1.25 to 5 uM after 24 hrs by inverted-light microscopy; format: functional, cell-based
[8] = tested on: HepG2; assay: Effect on human HepG2 cell morphology assessed as formation of round cells at 1.25 to 5 uM after 24 hrs by inverted-light microscopy; format: functional, cell-based
[9] = tested on: HepG2; assay: Induction of necrosis in human HepG2 cells at 1.25 to 5 uM after 24 hrs by inverted-light microscopy; format: functional, cell-based
[10] = tested on: HepG2; assay: Effect on human HepG2 cell morphology assessed as cell elongation at 0.5 to 2 uM after 24 hrs by inverted-light microscopy; format: functional, cell-based
[11] = tested on: HepG2; assay: Effect on human HepG2 cell morphology assessed as induction of membrane blebbing at 0.5 to 2 uM after 24 hrs by inverted-light microscopy; format: functional, cell-based
[12] = tested on: HepG2; assay: Effect on human HepG2 cell morphology assessed as induction of cell shrinkage at 0.5 to 2 uM after 24 hrs by inverted-light microscopy; format: functional, cell-based
[13] = tested on: HepG2; assay: Effect on human HepG2 cell morphology assessed as formation of round cells at 0.5 to 2 uM after 24 hrs by inverted-light microscopy; format: functional, cell-based
[14] = tested on: HepG2; assay: Induction of necrosis in human HepG2 cells at 0.5 to 2 uM after 24 hrs by inverted-light microscopy; format: functional, cell-based
[15] = tested on: HepG2; assay: Induction of apoptosis in human HepG2 cells assessed as nuclear condensation at 1.25 to 5 uM after 24 hrs by DAPI staining-based fluorescence microscopy; format: functional, cell-based
[16] = tested on: HepG2; assay: Induction of apoptosis in human HepG2 cells assessed as nuclear condensation at 0.5 to 2 uM after 24 hrs by DAPI staining-based fluorescence microscopy; format: functional, cell-based
[17] = tested on: HepG2; assay: Induction of apoptosis in human HepG2 cells assessed as appearance of apoptotic bodies at 1.25 to 5 uM after 24 hrs by fluorescence microscopy; format: functional, cell-based
[18] = tested on: HepG2; assay: Induction of apoptosis in human HepG2 cells assessed as appearance of apoptotic bodies at 0.5 to 2 uM after 24 hrs by fluorescence microscopy; format: functional, cell-based
[19] = tested on: HepG2; assay: Induction of apoptosis in human HepG2 cells assessed as dead cells at 0.5 uM after 24 hrs using annexin-V and propidium iodide staining by flow cytometry; format: functional
[20] = tested on: HepG2; assay: Induction of apoptosis in human HepG2 cells assessed as late apoptotic cells at 0.5 uM after 24 hrs using annexin-V and propidium iodide staining by flow cytometry; format: functional
[21] = tested on: HepG2; assay: Induction of apoptosis in human HepG2 cells assessed as early apoptotic cells at 0.5 uM after 24 hrs using annexin-V and propidium iodide staining by flow cytometry; format: functional
[22] = tested on: HepG2; assay: Induction of apoptosis in human HepG2 cells assessed as viable cells at 0.5 uM after 24 hrs using annexin-V and propidium iodide staining by flow cytometry; format: functional; conditions: HepG2, 24 h, read-out: Activity
[23] = tested on: HepG2; assay: Induction of apoptosis in human HepG2 cells assessed as dead cells at 1 uM after 24 hrs using annexin-V and propidium iodide staining by flow cytometry; format: functional
[24] = tested on: HepG2; assay: Induction of apoptosis in human HepG2 cells assessed as late apoptotic cells at 1 uM after 24 hrs using annexin-V and propidium iodide staining by flow cytometry; format: functional
[25] = tested on: HepG2; assay: Induction of apoptosis in human HepG2 cells assessed as early apoptotic cells at 1 uM after 24 hrs using annexin-V and propidium iodide staining by flow cytometry; format: functional
[26] = tested on: HepG2; assay: Induction of apoptosis in human HepG2 cells assessed as viable cells at 1 uM after 24 hrs using annexin-V and propidium iodide staining by flow cytometry; format: functional; conditions: HepG2, 24 h, read-out: Activity
[27] = tested on: HepG2; assay: Induction of apoptosis in human HepG2 cells assessed as dead cells at 2 uM after 24 hrs using annexin-V and propidium iodide staining by flow cytometry; format: functional
[28] = tested on: HepG2; assay: Induction of apoptosis in human HepG2 cells assessed as late apoptotic cells at 2 uM after 24 hrs using annexin-V and propidium iodide staining by flow cytometry; format: functional
[29] = tested on: HepG2; assay: Induction of apoptosis in human HepG2 cells assessed as early apoptotic cells at 2 uM after 24 hrs using annexin-V and propidium iodide staining by flow cytometry; format: functional
[30] = tested on: HepG2; assay: Induction of apoptosis in human HepG2 cells assessed as viable cells at 2 uM after 24 hrs using annexin-V and propidium iodide staining by flow cytometry; format: functional; conditions: HepG2, 24 h, read-out: Activity
[31] = tested on: HepG2; assay: Induction of apoptosis in human HepG2 cells assessed as increase in bax expression at 0.5 to 2 uM after 24 hrs; format: functional, cell-based
[32] = tested on: HepG2; assay: Induction of apoptosis in human HepG2 cells assessed as decrease in procaspase-3 expression at 0.5 to 2 uM after 24 hrs; format: functional, cell-based
[33] = tested on: HepG2; assay: Induction of apoptosis in human HepG2 cells assessed as increase in active caspase-3 expression at 0.5 to 2 uM after 24 hrs; format: functional, cell-based
[34] = tested on: HepG2; assay: Induction of apoptosis in human HepG2 cells assessed as dead cells at 1.25 uM after 24 hrs using annexin-V and propidium iodide staining by flow cytometry; format: functional
[35] = tested on: HepG2; assay: Induction of apoptosis in human HepG2 cells assessed as late apoptotic cells at 1.25 uM after 24 hrs using annexin-V and propidium iodide staining by flow cytometry; format: functional
[36] = tested on: HepG2; assay: Induction of apoptosis in human HepG2 cells assessed as early apoptotic cells at 1.25 uM after 24 hrs using annexin-V and propidium iodide staining by flow cytometry; format: functional
[37] = tested on: HepG2; assay: Induction of apoptosis in human HepG2 cells assessed as viable cells at 1.25 uM after 24 hrs using annexin-V and propidium iodide staining by flow cytometry; format: functional; conditions: HepG2, 24 h, read-out: Activity
[38] = tested on: HepG2; assay: Induction of apoptosis in human HepG2 cells assessed as dead cells at 2.5 uM after 24 hrs using annexin-V and propidium iodide staining by flow cytometry; format: functional
[39] = tested on: HepG2; assay: Induction of apoptosis in human HepG2 cells assessed as late apoptotic cells at 2.5 uM after 24 hrs using annexin-V and propidium iodide staining by flow cytometry; format: functional
[40] = tested on: HepG2; assay: Induction of apoptosis in human HepG2 cells assessed as early apoptotic cells at 2.5 uM after 24 hrs using annexin-V and propidium iodide staining by flow cytometry; format: functional
[41] = tested on: HepG2; assay: Induction of apoptosis in human HepG2 cells assessed as viable cells at 2.5 uM after 24 hrs using annexin-V and propidium iodide staining by flow cytometry; format: functional; conditions: HepG2, 24 h, read-out: Activity
[42] = tested on: HepG2; assay: Induction of apoptosis in human HepG2 cells assessed as dead cells at 5 uM after 24 hrs using annexin-V and propidium iodide staining by flow cytometry; format: functional
[43] = tested on: HepG2; assay: Induction of apoptosis in human HepG2 cells assessed as late apoptotic cells at 5 uM after 24 hrs using annexin-V and propidium iodide staining by flow cytometry; format: functional
[44] = tested on: HepG2; assay: Induction of apoptosis in human HepG2 cells assessed as early apoptotic cells at 5 uM after 24 hrs using annexin-V and propidium iodide staining by flow cytometry; format: functional
[45] = tested on: HepG2; assay: Induction of apoptosis in human HepG2 cells assessed as viable cells at 5 uM after 24 hrs using annexin-V and propidium iodide staining by flow cytometry; format: functional; conditions: HepG2, 24 h, read-out: Activity
[46] = tested on: HepG2; assay: Induction of apoptosis in human HepG2 cells assessed as decrease in Bcl-2 expression at 1.25 to 5 uM after 24 hrs; format: functional, cell-based
[47] = tested on: HepG2; assay: Induction of apoptosis in human HepG2 cells assessed as decrease in procaspase-3 expression at 1.25 to 5 uM after 24 hrs; format: functional, cell-based

Compound | IC50 [1] | IC50 [2] | IC50 [3] | IC50 [4] | Activity [5] | Activity [6] | Activity [7] | Activity [8] | Activity [9] | Activity [10] | Activity [11] | Activity [12] | Activity [13] | Activity [14] | Activity [15] | Activity [16] | Activity [17] | Activity [18] | also measured
COC(=O)/C(C)=C\C[C@@]12OC(C)(C)[C@@H]3C[C@@H](C=C4C(=O)c5c(O)c(C6C[C@](C)(OC)CCC6=C(C)C)c6c(c5O[C@]431)CCC(C)(C)O6)C2=O (stereo partly drawn) | 1.53 µM | 2.01 µM | 1.51 µM | 1.24 µM | Active | Active | Active | Active | Active | Active | Active | Active | Active | Active | Active | Active | Active | Active | Activity [19]: 0.3%; Activity [20]: 1.3%; Activity [21]: 4.3%; viability at 0.5 µM [22]: 94%; Activity [23]: 0.9%; Activity [24]: 2.5%; Activity [25]: 12.9%; viability at 1 µM [26]: 83.7%; Activity [27]: 3.4%; Activity [28]: 8.1%; Activity [29]: 35%; viability at 2 µM [30]: 53.6%; Activity [31]: Active; Activity [32]: Active; Activity [33]: Active
COC(=O)/C(C)=C\C[C@@]12OC(C)(C)[C@@H]3C[C@@H](C=C4C(=O)c5c(O)c6c(c(CC=C(C)C)c5O[C@]431)O[C@](C)(CCC=C(C)C)C=C6)C2=O [METHYL GAMBOGATE] | 2.53 µM | 1.24 µM | 0.79 µM | 0.52 µM | – | – | – | – | – | – | – | – | – | – | – | – | – | – | –
CC(C)=CCC[C@]1(C)C=Cc2c(O)c3c(c(CC=C(C)C)c2O1)O[C@]12C(=C[C@@H]4C[C@H]1C(C)(C)O[C@@]2(C/C=C(/C)C(=O)O)C4=O)C3=O [GAMBOGIC ACID] | 2.4 µM | 1.54 µM | 1.47 µM | 0.5 µM | – | – | – | – | – | – | – | – | – | – | – | – | – | – | –
COC(=O)/C(C)=C\C[C@@]12OC(C)(C)[C@@H]3C[C@@H](C=C4C(=O)c5c(O)c6c(c(CC=C(C)C)c5O[C@]431)O[C@]1(C)CCC(=C(C)C)C6C1)C2=O | 1.96 µM | 1.45 µM | 2.15 µM | 1.88 µM | Active | Active | Active | Active | Active | Active | Active | Active | Active | Active | Active | Active | Active | Active | Activity [34]: 0.4%; Activity [35]: 4%; Activity [36]: 5.7%; viability at 1.25 µM [37]: 89.8%; Activity [38]: 1.4%; Activity [39]: 4.1%; Activity [40]: 13.6%; viability at 2.5 µM [41]: 80.9%; Activity [42]: 1.8%; Activity [43]: 4.4%; Activity [44]: 20.7%; viability at 5 µM [45]: 73.2%; Activity [46]: Active; Activity [47]: Active
